These results are taken from patent publication US6140051A, “Fluorescent dibenzazole derivatives and methods related thereto” (priority 1998, dated 2000).

Data set [1] can be described thus: Fluorescence properties measured at pH about 10 in AttoPhos buffer. The class given is physicochemical. How it is done:
* The fluorescence is measured at pH about 10 in AttoPhos buffer (JBL
Scientific, San Luis Obispo, CA).
In the following examples, NMR data were measured by a Bruker AC-300 300 MHz instrument; mass spectra were obtained on a VG Platform, Fisons Instruments; fluorescence data were obtained from a Perkin Elmer Luminescence Spectrometer, Model LS50B.

The conditions of data set [2]: background, known fluorophores; cited from earlier work.
The subject of data set [3] is Esterase from Porcine Liver. The data set is described as follows: Esterase activity towards BBT acyl derivatives. The class given is biochemical. Particulars: 100 mM Tris HCl pH 8.0; Ex 440 nm, Em 550 nm; FIG. 4. How it is done: Buffer: 100 mM Tris. HCl, pH 8.0.
Substrate Stock Solution: 2 mM acyl BBT dioxane solution.
Enzymes: All enzymes were from Sigma: Esterase from Porcine Liver(E3 128); Lipase from Pseudomonas species (L9518); Lipase from Candida cylindracea (L1754). Dilute the enzyme by the buffer to the desired concentration before use.
Instrument: Squoia-Tumer Fluorometer, Model 450. Excitation at 440 nm and Emission at 550 nm.
1. Set the Fluorometer Gain to 200.
2. Set the Fluorometer Zero to 0 with the Tris buffer.
3. Set the Fluorometer Span to 1000 using JBL 10 ng BBT (FEY) standard solution.
4. Pipette 980 μl buffer to a glass test tube (Baxter, Cat. No. T1290-3).
5. Add 10 μl substrate stock solution and mix well.
6. Measure and record the blank reading.
7. Add 10 μl enzyme solution.
8. Take fluorescence reading every one minute for 3 minutes and record.
9. Calculate the fluorescence unit change (FU/min) by subtracting the first-minute reading from the second-minute reading.
10. Plot FU/min vs. enzyme concentration, u/L (FIG. 4 and FIG. 5).

The test system of data set [4] is Lipase from Pseudomonas species. The data set is described as follows: Lipase activity towards BBT acyl derivatives. The class given is biochemical. The following applies: 100 mM Tris HCl pH 8.0; Ex 440 nm, Em 550 nm; FIG. 5; text says 'lipases'. As to the method: (3) Esterase and Lipase: Buffer: 100 mM Tris. HCl, pH 8.0. Substrate Stock Solution: 2 mM acyl BBT dioxane solution. Enzymes: All enzymes were from Sigma: Esterase from Porcine Liver(E3 128); Lipase from Pseudomonas species ([…]); Lipase from Candida cylindracea ([…]). Dilute the enzyme by the buffer to the desired concentration before use. Instrument: Squoia-Tumer Fluorometer, Model 450. Excitation at 440 nm and Emission at 550 nm. Procedure: 1. Set the Fluorometer Gain to 200. 2. Set the Fluorometer Zero to 0 with the Tris buffer. 3. Set the Fluorometer Span to 1000 using JBL 10 ng BBT (FEY) standard solution. 4. Pipette 980 μl buffer to a glass test tube (Baxter, Cat. No. T1290-3). 5. Add 10 μl substrate stock solution and mix well. 6. Measure and record the blank reading. 7. Add 10 μl enzyme solution. 8. Take fluorescence reading every one minute for 3 minutes and record. 9. Calculate the fluorescence unit change (FU/min) by subtracting the first-minute reading from the second-minute reading. 10. Plot FU/min vs. enzyme concentration, u/L (FIG. 4 and FIG. 5).

Data set [5] can be described thus: pH dependence of fluorescence. It is filed as physicochemical. An excerpt: To make the phenolic fluorophore fully fluorescent at a lower pH (7-8) to achieve the best performance for some enzymatic and biological assays, some fluorophores are synthesized with electronegative substituent(s), e.g., chloride, bromide, iodide, fluoride, trifluoromethyl, --SO3 H, etc. These substituted derivatives may be analyzed at different pH's for their fluorescent efficiency. The dependence of fluorescent intensity on pH for some preferred compounds of the invention, and comparative compounds, are shown in FIG. 3. Compared to the unsubstituted compound, BBT (also shown in the graph, U.S. Pat. No. 5,424,440), the electronegatively substituted BBT derivatives, especially CIBBT, can reach their maximum fluorescence at a pH very close to physiological conditions (pH 7-8). The pH dependent characteristic change of fluorescent intensity of these fluorophores can also find applications as pH titration fluorescent indicators.

The conditions of data set [6]: cited from earlier work.
For data set [7] the following is noted: phenolic hydroxyl; cited from earlier work.
The next data set concerns the target T1, β-galactosidase (Escherichia coli, UniProt P00722).
T1 construct: purchased ICN Biomedicals, Inc. 104939; host or cells: E. Coli
The data set is described as follows: Enzymatic activity test, β-galactosidase. It is filed as biochemical, E. Coli. Particulars: 1 mg in 10 ml 0.1 M potassium phosphate buffer pH 7, 10 mM DTT, 1 mM MgCl2. As to the method: (2) β-Galactosidase: 1 mg BEBTESG was dissolved in 10 ml 0.1 M potassium phosphate buffer (pH 7) containing 10 mM DTT and 1 mM MgCl2 and a small quantity of β-galactosidase (Cat. No. 104939, E. Coli, ICN Biomedicals, Inc.) was added.

The nature of data set [8]: Fluorescence of labeled oligonucleotide on DNA electrophoresis gel. The following applies: versus non-labeled oligonucleotide. An excerpt: (4) Fluorescence: The labeled BBTE-[…] (SEQ ID NO: 1) was separated on a standard DNA electrophoresis gel, along with the non-labeled […] (SEQ ID NO: 1).
The target of data set [9] is T2, alkaline phosphatase (Calf Intestine) (Bos taurus, UniProt P19111).
T2 construct: purchased Calzyme, San Luis Obispo, Calif; host or cells: calf intestine
T2 sequence (P19111 20-506 limits assumed): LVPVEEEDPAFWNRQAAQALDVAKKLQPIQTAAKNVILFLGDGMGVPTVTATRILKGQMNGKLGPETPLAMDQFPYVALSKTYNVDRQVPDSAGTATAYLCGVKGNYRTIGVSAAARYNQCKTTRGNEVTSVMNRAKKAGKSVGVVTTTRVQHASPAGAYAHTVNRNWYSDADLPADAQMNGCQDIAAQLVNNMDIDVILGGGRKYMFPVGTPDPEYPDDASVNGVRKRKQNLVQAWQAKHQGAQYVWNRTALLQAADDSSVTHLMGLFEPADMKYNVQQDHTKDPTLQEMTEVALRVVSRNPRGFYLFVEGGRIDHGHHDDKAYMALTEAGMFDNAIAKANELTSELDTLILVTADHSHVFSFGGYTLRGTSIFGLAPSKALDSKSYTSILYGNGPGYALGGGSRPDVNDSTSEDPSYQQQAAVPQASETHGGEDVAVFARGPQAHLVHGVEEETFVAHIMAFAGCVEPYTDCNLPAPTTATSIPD
Nature of the data set: Enzymatic activity test, alkaline phosphatase. The following applies: 1 mg in 10 ml AttoPhos buffer. The class given is biochemical. As to the method:
(1) Alkaline Phosphatase: 1 mg BEBTP was dissolved in 10 ml AttoPhos buffer (JBL Scientific, San Luis Obispo, Calif.). A small quantity of alkaline phosphatase (Calf Intestine, Calzyme, San Luis Obispo, Calif.) was added.

Structures can show the parent of a compound that is named as a salt. Where two headings read alike, the source gives them in different places. {BBTE} = label added with the BBTE phosphoramidite

The term pKa denotes the negative logarithm of the acid dissociation constant.

T1 sequence (P00722 2-1024): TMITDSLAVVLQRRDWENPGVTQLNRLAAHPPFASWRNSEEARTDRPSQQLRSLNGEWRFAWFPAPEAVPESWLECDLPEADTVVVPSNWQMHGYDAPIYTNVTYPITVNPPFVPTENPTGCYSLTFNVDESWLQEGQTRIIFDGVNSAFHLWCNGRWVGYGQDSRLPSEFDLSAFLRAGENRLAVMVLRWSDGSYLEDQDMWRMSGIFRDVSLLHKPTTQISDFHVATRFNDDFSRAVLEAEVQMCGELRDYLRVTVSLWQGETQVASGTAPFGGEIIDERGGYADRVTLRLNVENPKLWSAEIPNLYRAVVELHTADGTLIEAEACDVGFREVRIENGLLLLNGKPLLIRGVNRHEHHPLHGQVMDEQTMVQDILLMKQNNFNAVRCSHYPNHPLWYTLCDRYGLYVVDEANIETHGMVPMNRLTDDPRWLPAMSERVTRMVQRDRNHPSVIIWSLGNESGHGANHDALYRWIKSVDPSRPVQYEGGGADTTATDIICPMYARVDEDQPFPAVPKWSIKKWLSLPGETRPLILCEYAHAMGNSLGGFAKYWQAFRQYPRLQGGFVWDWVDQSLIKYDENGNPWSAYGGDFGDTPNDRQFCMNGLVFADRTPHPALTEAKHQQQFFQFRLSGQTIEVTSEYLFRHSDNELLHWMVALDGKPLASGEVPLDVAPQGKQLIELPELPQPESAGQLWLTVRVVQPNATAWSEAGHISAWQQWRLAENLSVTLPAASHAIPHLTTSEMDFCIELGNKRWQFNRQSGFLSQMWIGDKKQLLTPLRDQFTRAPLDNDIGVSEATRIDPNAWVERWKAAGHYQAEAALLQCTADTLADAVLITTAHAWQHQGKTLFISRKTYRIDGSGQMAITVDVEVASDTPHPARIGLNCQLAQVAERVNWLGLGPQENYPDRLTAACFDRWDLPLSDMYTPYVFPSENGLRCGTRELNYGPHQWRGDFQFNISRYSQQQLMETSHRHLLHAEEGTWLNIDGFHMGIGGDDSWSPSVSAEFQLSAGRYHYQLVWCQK

As for `Oc1ccc2nc(/C=C/c3nc4c(ccc5ccccc54)s3)sc2c1` [α-BENT], in data set [1] (Table 2), the EM stood at 624 nm, the EX worked out at 443 nm and the “Stokes Shift” value turned out to be 181 nm.

For `Cc1cc(=O)oc2cc(O)ccc12` [4-Methylumbelliferone], in [2], the “Stokes Shift” value is on record as 82 nm, the “λEM (wavelength of maximum emission)” value is on record as 449 nm and the “λEX (wavelength of maximum excitation)” value is given as 367 nm.

As for `O=C(Cc1ccc2nc(-c3nc4ccc(O)cc4s3)sc2c1)NCCS(=O)(=O)O` [BBTAAT], in data set [1] (Table 1), the EM is 548 nm, the EX turned out to be 430 nm and the “Stokes Shift” value is 118 nm.

For the compound `CCC(=O)Oc1ccc2nc(-c3nc4ccccc4s3)sc2c1` [Propionyl BBT, 2'-(2-Benzothiazolyl)-6'-hydroxybenzothiazole Propionate], the “substrate activity for porcine liver esterase” value in data set [3] is listed as “very effective substrate”. In addition, the “substrate activity for lipases” value in [4] is “very poor substrate”.

As for `O=C1OC2(c3ccc(O)cc3Oc3cc(O)ccc32)c2ccccc21` [Fluorescein], in [2], the “Stokes Shift” value was 28 nm, the “λEM (wavelength of maximum emission)” value is given as 520 nm and the “λEX (wavelength of maximum excitation)” value was 492 nm.

`OCCc1ccc2nc(-c3nc4ccc(O)cc4s3)sc2c1` [BBTE]: in [1] (Table 1), the EM amounted to 550 nm, the EX turned out to be 422 nm and the “Stokes Shift” value is 128 nm.

For `Oc1ccc2nc(-c3nc4ccccc4s3)sc2c1` [BBT, 2'-(2-Benzothiazolyl)-6'-hydroxy-benzothiazole], the “pH at which the compound fully fluoresces” value in data set [5] is 9-10 pH. In data set [2], the “Stokes Shift” value is 142 nm, the “λEM (wavelength of maximum emission)” value is given as 561 nm and the “λEX (wavelength of maximum excitation)” value is reported as 419 nm. In data set [6] (pH 10.3 (ALP assay)), the “ionization state (fluorescence)” value is listed as “fully ionized”. The “ionization state (fluorescence)” value in data set [6] (pH range of 6.0 to 8.0) is “only partially ionized”. Moreover, in [7], the pKa was 8.5.

In the case of `O=S(=O)(O)c1c(O)ccc2nc(-c3nc4ccccc4s3)sc12` [SBBT], in data set [1] (Table 1), the EM is reported as 538 nm, the EX turned out to be 420 nm and the “Stokes Shift” value came to 118 nm.

Turning to `Oc1ccc2nc(/C=C/c3nc4ccccc4s3)sc2c1` [BEBT, 2'-(2-benzothiazolylethenyl)-6'-hydroxybenzothiazole], in data set [1] (Table 2), the EM worked out at 620 nm, the EX is given as 440 nm and the “Stokes Shift” value is given as 180 nm.

For the compound `CCN(CC)c1ccc2c(-c3ccccc3C(=O)O)c3ccc(=[N+](CC)CC)cc-3oc2c1` [Rhodamine], in data set [2], the “Stokes Shift” value is given as 35 nm, the “λEM (wavelength of maximum emission)” value is on record as 575 nm and the “λEX (wavelength of maximum excitation)” value is reported as 540 nm.

With `CCCCCCCC/C=C\CCCCCCCC(=O)Oc1ccc2nc(-c3nc4ccccc4s3)sc2c1` [oleoyl BBT, 2'-(2-Benzothiazolyl)-6'-hydroxybenzothiazole Oleate], the “substrate activity for porcine liver esterase” value in data set [3] was “low activity”. For the same compound, in data set [4], the “substrate activity for lipases” value was “high activity”.

In the case of `Oc1ccc2nc(/C=C/c3nc4ccccc4o3)sc2c1` [BEBO, 2'-(2-benzoxazolylethenyl)-6'-hydroxybenzothiazole], in [1] (Table 2), the EM is 604 nm, the EX was determined as 438 nm and the “Stokes Shift” value is reported as 166 nm.

`O=C(O)Cc1ccc2nc(-c3nc4ccc(O)cc4s3)sc2c1` [BBTAA, 2'-(6-Hydroxybenzothiazol-2-yl)-benzothiazole-6'-acetic acid]: in data set [1] (Table 1), the EM was found to be 549 nm, the EX amounted to 430 nm and the “Stokes Shift” value came to 119 nm.

`Oc1ccc2nc(/C=C/c3nc4c(ccc5ccccc54)o3)sc2c1` [α-BENO]: in [1] (Table 2), the EM is reported as 585 nm, the EX was 432 nm and the “Stokes Shift” value is reported as 153 nm.

For the compound `Oc1ccc2nc(-c3ccccc3)oc2c1` [2-Phenyl-6-hydroxybenzoxazole], in data set [2], the “Stokes Shift” value was 110 nm, the “λEM (wavelength of maximum emission)” value is on record as 460 nm and the “λEX (wavelength of maximum excitation)” value is 370 nm.

As to `Oc1ccc2nc(/C=C/c3nc4ccc5ccccc5c4o3)sc2c1` [β-BENO], in data set [1] (Table 2), the EM is given as 602 nm, the EX worked out at 443 nm and the “Stokes Shift” value came out at 159 nm.

Turning to `Oc1ccc2nc(-c3nc4ccccc4s3)sc2c1Cl` [CIBBT, 2'-(Benzothiazol-2-yl)-7'-chloro-6'-hydroxybenzothiazole], in [1] (Table 1), the EM is listed as 550 nm, the EX is 435 nm and the “Stokes Shift” value was 115 nm. For the same compound, the “pH at which maximum fluorescence is reached” value in data set [5] (FIG. 3) is recorded as 7-8 pH.

On to `O=S(=O)(O)CCc1ccc2nc(/C=C/c3nc4ccc(O[C@@H]5O[C@H](CO)[C@H](O)[C@H](O)[C@H]5O)cc4s3)sc2c1` [BEBTESG, 2'-((6-Sulfoethyl-2-benzothiazolyl)ethenyl)-6'-hydroxybenzothiazole β-D-Galactoside], for which, at β-galactosidase, the “fluorescence on hydrolysis by β-galactosidase” value was “orange red fluorescence was quickly developed”.

As for `Oc1ccc2nc(-c3nc4ccccc4s3)sc2c1F` [FBBT, 2'-(2-Benzothiazolyl)-7'-fluoro-6'-hydroxybenzothiazole], in [1] (Table 1), the EM is reported as 552 nm, the EX came to 423 nm and the “Stokes Shift” value turned out to be 129 nm.

As for `O=C(O)Cc1ccc2nc(-c3nc4ccc(O)c(Cl)c4s3)sc2c1` [CIBBTAA, 2'-(7-Chloro-6-hydroxybenzothiazol-2-yl)-benzothiazole-6'-acetic acid], in [1] (Table 1), the EM is 545 nm, the EX is given as 437 nm and the “Stokes Shift” value amounted to 108 nm.

“BBTE-TCTCCCAGCGTGCGCCAT: oligonucleotide (SEQ ID NO: 1) labeled at the 5'-end with the BBTE phosphoramidite (5' {BBTE}, sugars by position and backbone not given here)”: in data set [8], the “fluorescence on DNA electrophoresis gel” value is on record as “strong yellow fluorescent band”.

Consider `CCN1C(=CC=Cc2oc3ccccc3[n+]2CCCCCC(=O)[O-])Oc2ccccc21` [Cy2], for which, in data set [2], the “Stokes Shift” value was 18 nm, the “λEM (wavelength of maximum emission)” value was 506 nm and the “λEX (wavelength of maximum excitation)” value is recorded as 489 nm.

Turning to `O=P(O)(O)Oc1ccc2nc(/C=C/c3nc4ccccc4s3)sc2c1` [BEBTP, 2'-(2-Benzothiazolylethenyl)-6'-hydroxybenzothiazole phosphate di(2-amino-2-methyl 1,3-propanediol) salt], the “fluorescence on hydrolysis by alkaline phosphatase” value in data set [9] is recorded as “orange red fluorescence was quickly developed”.
